Results published in patent US20210285955A1, “METHODS AND REAGENTS FOR ANALYZING PROTEIN-PROTEIN INTERFACES” (Revolution Medicines, Inc., priority 2017, published 2021).
Each block holds one compound with its values, some of them ahead of it.

Columns and labels:
Type in all cases: binding
[1] = target: T1, KRASGTP/S39C lite and FKBP12 (Homo sapiens, UniProt P01116+P62942, C118S/C51S/C80L/G12V/S39C); assay: Ternary complex formation by SEC and SDS-PAGE; conditions: 1:2:2 compound:FKBP12:KRAS, SEC profile and SDS-PAGE of elution peaks
T1 construct: KRASGTP/S39C lite (in house; residues 1-169 containing G12V/S39C/C51S/C80L/C118S); made in house
Procedure: (§1) A 1:2:2 molar ratio of compound, presenter protein, and target protein are mixed together in 12.5 mM HEPES pH 7.4, 75 mM NaCl buffer containing 2% DMSO. The reaction is incubated at 37° C. for 30 min, followed by overnight incubation at room temperature. Pure complex is isolated by Size Exclusion Chromatography (SEC) purification. The reaction mixture is directly injected on a Superdex 75 column (CV 120 mL) pre-equilibrated with buffer containing 12.5 mM HEPES pH 7.4, 75 mM NaCl. Complex elutes at a higher molecular weight than unreacted target protein and presenter protein. To confirm presence of complex in the elution peak, samples are assessed by SDS-PAGE.
Experimental Protocol: A 1:2:2 molar ratio of C2-Holt, FKBP12, and KRASGTP/S39C lite are mixed together in 12.5 mM HEPES pH 7.4, 75 mM NaCl buffer containing 2% DMSO. The reaction is incubated at 37° C. for 30 min, followed by overnight incubation at room temperature. Pure complex is isolated by Size Exclusion Chromatography (SEC) purification. The reaction mixture is directly injected on a Superdex 75 column (CV 120 mL) pre-equilibrated with buffer containing 12.5 mM HEPES pH 7.4, 75 mM NaCl. […] To confirm the presence of KRASGTP/S39C lite and FKBP12 in the elution peak, samples are also assessed by SDS-PAGE.

CypAC52S = target: T2, CypAC52S (Homo sapiens, UniProt P62937, C52S); assay: Presenter cross-linking assessed by SDS-PAGE; conditions: CypA with Cysteine 52 mutated to Serine
T2 construct: made in house
Procedure: (§2) Experimental Protocol: A 1:2 molar ratio of KRASGTP/G12C lite and SFAX9DS are mixed together in 12.5 mM HEPES pH 7.4, 75 mM NaCl buffer containing 2% DMSO. The reaction is incubated at 37° C. for 30 min, followed by overnight incubation at room temperature. Cross-linking efficiency is assessed by SDS-PAGE gel. […] Cysteine 52 as a reactive Cysteine on CypA and was mutated to Serine to abrogate presenter cross-linking.

Wild-type CypA = Wild-type CypA (Homo sapiens, UniProt P62937); assay: Presenter cross-linking assessed by SDS-PAGE
Procedure: as §2

KRASGTP/G12C lite = target: T3, KRASGTP/G12C lite (Homo sapiens, UniProt P01116, C118S/C51S/C80L/G12C); assay: Conjugate formation (cross-linking) assessed by SDS-PAGE; conditions: 1:2 molar ratio protein:compound, 37° C. 30 min then overnight room temperature
T3 construct: KRASGTP/G12C lite (in house; residues 1-169 containing G12C/C51S/C80L/C118S); made in house
Procedure: (§3) Experimental Protocol: A 1:2 molar ratio of target protein and compound are mixed together in 12.5 mM HEPES pH 7.4, 75 mM NaCl buffer containing 2% DMSO. The reaction is incubated at 37° C. for 30 min, followed by overnight incubation at room temperature. Cross-linking efficiency is assessed by SDS-PAGE gel. Conjugates migrate slower than non-cross-linked target protein. For thiol reactive compounds, the Cys specific attachment of the compound to the target protein can be further confirmed by SDS-PAGE after the addition of 100 mM DTT to the reaction mixture, which reduces the conjugate back into its components.
as §2

KRASGTP/G12C [2] = target: T4, KRASGTP/G12C (Homo sapiens, UniProt P01116+P62942, G12C); assay: Cross-linking gel shift assay (12% SDS-PAGE); conditions: 60 μM KRAS, 180 μM FKBP12, 180 μM ligand, quenched by MMTS
T4 construct: KRASGTP/G12C (in-house, residues 1-169); made in house
Procedure: In parallel to mass spectrometry analysis, cross-linking reactions with C3 or […] were subjected to gel shift assay using 12% SDS-PAGE in the presence or absence of FKBP12 at the same experimental condition described above except that cross-linking reactions were set up at higher concentrations (60 μM KRAS, 180 μM FKBP12, and 180 μM C3 or […]) and they were quenched by MMTS to terminate the reaction.

KRASGTP/G12C [3] = target: T4, KRASGTP/G12C; assay: Presenter dependency of disulfide cross-linking by mass spectrometry; conditions: 2 μM KRAS, 10 μM ligand, 4 hours room temperature, MS
Procedure: This protocol describes methods to analyzing cross-linking efficiency using mass spectrometry and gel shift assay in effort to assess the presenter dependency of conjugate formation.
Experimental protocol: In order to follow the kinetics of disulfide crosslinking reactions, Agilent 6230 TOF-LC/MS and Agilent 1260 HPLC instruments employing a AdvanceBio RP-mAb C4 column (2.1×100 mm, 3.5 μm) and equipped with an auto-sampler were used. HPLC grade acetonitrile and water (each containing 1.0 mM ammonium formate and 1% formic acid by volume) were used as mobile phase with the following ramp: 0.6 ml/min flow rate, water:acetonitrile=95:5 from 0.0 to 13.0 min ramping to water:acetonitrile=5:95 from 13.0 to 17.0 min. Total time=17.0 min.
All crosslinking reactions were performed in 1.5 mL amber colored glass vials equipped with 0.5 mL glass inserts. A water-soluble peptide (SEQ ID NO: 1: […]) was employed as an internal standard. Although the actual sequence of the internal standard is inconsequential, choice of amino acid residues were critical to avoid interference in the crosslinking assays. […] All reactions and standard solutions were prepared in HEPES (pH 7.4, 1.0 mM MgCl2) buffer.
Prior to every reaction, a standard curve was obtained for the individual components using a series of standard solutions (an example of standard curve analysis for FKBP12 is shown in Table 3 below). Using the data from standard curve, μmol of protein samples were plotted against the ratio of areas (sample:std) and a linear fit (y=mx+c) was employed to obtain the slope and intercept. The value of slope and intercept involved in these standard curves were accounted for during evaluation of the substrate and product concentration before and during the course of the reaction. For every substrate/product, an initial injection was followed up by a blank injection to verify presence of any residual protein/reagents. Based on this analysis the sequence of auto-sampler can be adjusted to included appropriate number of blank injections for removal of residual components, if any. The MS spectra were analyzed using Agilent MassHunter v B.07.0 software.
In a representative experiment to assess the presenter dependency of ligand cross-linking on the target protein, KRASGTP/G12C and either C3 or C4SLF ligand were incubated in the presence or absence of FKBP12 at concentrations of 2 μM KRAS, 10 μM FKBP12, 10 μM C3 or C4SLF for 4 hours at room temperature in 12.5 mM HEPES pH 7.4, 75 mM NaCl, 1 mM MgCl2, 3% DMSO. Analysis of the amount of KRAS undergoing disulfide cross-linking with the ligand using the method above.

[4] = target: T5, PTP1BS187C lite and FKBP12 (Homo sapiens, UniProt P18031+P62942, C121S/C32S/C92V/S187C); assay: Ternary complex formation by SEC and SDS-PAGE; conditions: 1:3:3 compound:FKBP12:PTP1B, SEC profile and SDS-PAGE of elution peaks
T5 construct: (in house; residues 1-293 containing C32S/C92V/C121S/S187C); made in house
Procedure: as §1
Equipment: Mini-PROTEAN TGX Gel (Bio-Rad), Superdex 75 (GE Healthcare, CV 120 mL) Experimental Protocol: A 1:3:3 molar ratio of C3SLF, FKBP12, and PTPIBswc lite are mixed together in 12.5 mM HEPES pH 7.4, 75 mM NaCl buffer containing 4% DMSO. The reaction is incubated at 37° C. for 30 min, followed by overnight incubation at room temperature. Pure complex is isolated by Size Exclusion Chromatography (SEC) purification. The reaction mixture is directly injected on a Superdex 75 column (CV 120 mL) pre-equilibrated with buffer containing 12.5 mM HEPES pH 7.4, 75 mM NaCl. […] To confirm the presence of PTP1BS187C lite and FKBP12 in the elution peak, samples are also assessed by SDS-PAGE. […]

[5] = target: T6, KRASGDP/S39C lite and CypAC52S (Homo sapiens, UniProt P01116+P62937, C118S/C51S/C52S/C80L/G12V/S39C); assay: Ternary complex formation by SEC and SDS-PAGE; conditions: 1:2:2 compound:CypAC52S:KRAS, SEC profile and SDS-PAGE of elution peaks
T6 construct: KRASGDP/S39C lite (in house; residues 1-169 containing G12V/S39C/C51S/C80L/C118S); made in house
Procedure: as §1
Equipment: Mini-PROTEAN TGX Gel (Bio-Rad), Superdex 75 (GE Healthcare, CV 120 mL) Experimental Protocol: A 1:2:2 molar ratio of SFAC4DS, CypAC52S, and KRASGDP/S39C lite are mixed together in 12.5 mM HEPES pH 7.4, 75 mM NaCl buffer containing 2% DMSO. The reaction is incubated at 37° C. for 30 min, followed by overnight incubation at room temperature. Pure complex is isolated by Size Exclusion Chromatography (SEC) purification. The reaction mixture is directly injected on a Superdex 75 column (CV 120 mL) pre-equilibrated with buffer containing 12.5 mM HEPES pH 7.4, 75 mM NaCl. […] To confirm the presence of KRASGDP/S39C lite and CypAC52S in the elution peak, samples are also assessed by SDS-PAGE.

KRASGTP/S39C lite = target: T7, KRASGTP/S39C lite (Homo sapiens, UniProt P01116, C118S/C51S/C80L/G12V/S39C); assay: Conjugate formation (cross-linking) assessed by SDS-PAGE
T7 construct: KRASGTP/S39C lite (in house; residues 1-169 containing G12V/S39C/C51S/C80L/C118S); made in house
Procedure: General Protocol: This protocol describes a method for the formation of target protein-compound conjugates.
as §3
Experimental Protocol: A 1:2 molar ratio of KRASGTP/S39C lite and C2-FK506 are mixed together in 12.5 mM HEPES pH 7.4, 75 mM NaCl buffer containing 2% DMSO. The reaction is incubated at 37° C. for 30 min, followed by overnight incubation at room temperature. Cross-linking efficiency is assessed by SDS-PAGE gel. Attachment of C2-FK506 to Cysteine 39 on KRASGTP/S39C lite is also assessed by incubation of the reaction mixture with 100 mM DTT.

Chain of Wild-type CypA (P62937 whole entry): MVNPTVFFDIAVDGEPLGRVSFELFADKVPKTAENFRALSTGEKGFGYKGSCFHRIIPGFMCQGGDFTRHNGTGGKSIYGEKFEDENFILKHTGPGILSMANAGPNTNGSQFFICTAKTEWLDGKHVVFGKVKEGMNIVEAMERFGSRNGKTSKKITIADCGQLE
T2 sequence (P62937 whole entry C52S): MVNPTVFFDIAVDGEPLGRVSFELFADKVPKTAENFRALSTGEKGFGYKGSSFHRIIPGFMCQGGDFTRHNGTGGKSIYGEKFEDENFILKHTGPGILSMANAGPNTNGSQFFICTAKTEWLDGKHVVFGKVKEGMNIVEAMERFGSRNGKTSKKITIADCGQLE
T5 sequence (P18031 1-293 C32S/C92V/C121S/S187C limits assumed): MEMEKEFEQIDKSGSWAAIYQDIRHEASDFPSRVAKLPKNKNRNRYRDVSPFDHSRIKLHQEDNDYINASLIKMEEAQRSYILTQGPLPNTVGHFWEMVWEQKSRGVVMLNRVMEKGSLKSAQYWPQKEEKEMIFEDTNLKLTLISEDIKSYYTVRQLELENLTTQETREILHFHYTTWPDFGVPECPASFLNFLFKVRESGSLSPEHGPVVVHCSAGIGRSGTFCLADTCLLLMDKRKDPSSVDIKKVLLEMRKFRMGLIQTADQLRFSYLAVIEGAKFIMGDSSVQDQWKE
T5 sequence (P62942 whole entry, the tested form may be a part): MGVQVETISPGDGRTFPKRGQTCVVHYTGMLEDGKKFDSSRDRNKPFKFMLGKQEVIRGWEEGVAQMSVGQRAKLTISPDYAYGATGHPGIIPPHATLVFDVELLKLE

Compound: CCC(C)(C)C(=O)C(=O)N1CCCC[C@H]1C(=O)O[C@H](CCc1ccc(OC)c(OC)c1)c1cccc(NC(=O)CCSSc2ccccn2)c1 [Compound C3SLF]
- Ligand cross-linking efficiency in presence vs absence of FKBP12 (KRASGTP/G12C [2]): boosted significantly
- % xlink to KRAS (KRASGTP/G12C [3]; FKBP12 + (10 μM)): 47.5%
- % xlink to KRAS (KRASGTP/G12C [3]; FKBP12 − (absent)): 9.6%
- Formation of ternary complex [4]: confirm the formation

Compound: CO[C@H]1C[C@@H](C)C/C(C)=C/[C@@H](CCCC(=O)NCCSSc2ccccn2)C(=O)C[C@H](O)[C@@H](C)[C@@H](/C(C)=C/[C@@H]2CC[C@@H](O)[C@H](OC)C2)OC(=O)[C@@H]2CCCCN2C(=O)C(=O)[C@]2(O)O[C@H]1[C@@H](OC)C[C@H]2C [Compound C2-FK506]
- Cross-linking efficiency (KRASGTP/S39C lite; 1:2 molar ratio protein:compound, 37° C. 30 min then overnight room temperature, SDS-PAGE): cross-links efficiently
- Cys specific attachment of the compound (KRASGTP/S39C lite; SDS-PAGE after 100 mM DTT): specific for Cysteine 39

Compound: CCC(C)(C)C(=O)C(=O)N1CCCC[C@H]1C(=O)O[C@H](CCc1ccc(OC)c(OC)c1)c1cccc(NC(=O)CCCSSc2ccccn2)c1 [Compound C4SLF, (R)-3-(3,4-dimethoxyphenyl)-1-(3-(4-(pyridin-2-yldisulfanyl)butanamido)phenyl)propyl (S)-1-(3,3-dimethyl-2-oxopentanoyl)piperidine-2-carboxylate]
- Ligand cross-linking efficiency in presence vs absence of FKBP12 (KRASGTP/G12C [2]): boosted significantly
- % xlink to KRAS (KRASGTP/G12C [3]; FKBP12 + (10 μM)): 69.8%
- % xlink to KRAS (KRASGTP/G12C [3]; FKBP12 − (absent)): 7.0%

The next lines start with the values.

- Formation of ternary complex [1]: confirm the formation
Compound: CCC(C)(C)C(=O)C(=O)N1CCCC[C@H]1C(=O)OCCCC(=O)NCCSSc1ccccn1 [Compound C2Holt]

- Cross-linking to presenter protein (CypAC52S): does not cross-link
- Cross-linking to presenter protein (Wild-type CypA): also cross-linked
- Cross-linking efficiency (KRASGTP/G12C lite): cross-links efficiently
Compound: COC(=O)[C@@H]1CCCN(C(=O)[C@H](Cc2cccc(O)c2)NC(=O)[C@@H](NC(=O)CCOCCOCCSSc2ccccn2)C(C)C)N1 [SFAX9DS]

- Formation of ternary complex [5]: confirm the formation
Compound: COC(=O)[C@@H]1CCCN(C(=O)[C@H](Cc2cccc(O)c2)NC(=O)[C@@H](NC(=O)CCCSSc2ccccn2)C(C)C)N1 [SFAC4DS]
